Experimental data as given in patent US20220296600A1, “USE OF A COMPOSITION COMPRISING 3,6,7-TRIMETHYLLUMAZINE FOR PREVENTING, AMELIORATING OR TREATING MMP-9 ASSOCIATED CONDITIONS AND INFLAMMATION” (COMVITA LIMITED, priority 2019, published 2022).

Experiments:
recombinant MMP-9 enzyme [1] = target: T1, recombinant MMP-9 enzyme (Homo sapiens, UniProt P14780); test: MMP-9 inhibitor screening assay (fluorometric); type: biochemical
T1 construct: purchased Abcam (Melbourne, Australia)
Protocol: The MMP-9 inhibitor screening assay (fluorometric) kits were purchased from Abcam (Melbourne, Australia). The fluorometric kit contains the recombinant MMP-9 enzyme, MMP inhibitor NNGH (N-isobutyl-N-[4-methoxyphenylsulfonyl]glycyl hydroxamic acid), MMP fluorogenic substrate solubilised in DMSO, the fluorometric assay buffer and 96-well clear microplate.
Inhibitory activity on MMP-9 was assessed using the commercial MMP-9 inhibitor screening assay kit. MMP-9 activity was expressed as a change in fluorescence intensity measured using SpectraMax iD3 multi-mode microplate reader (Molecular Devices, San Jose, USA).
The assay employs a FRET-tagged (fluorescence resonance energy transfer) substrate, which can be hydrolysed by MMP-9 at a specific site (Abcam, 2018). The cleavage of the FRET substrate releases the quenched fluorescent Mca (7- methoxycoumarin-4-yl)-acetyl group (Abcam, 2018). The kit employs a quenched fluorogenic substrate Mca-Pro-Leu-Gly-Leu-Dpa-Ala-Arg-NH2, where the Mca fluorescence is quenched by Dpa until cleavage by MMPs. The amount of fluorescent product yielded by MMP-9 can be detected fluorometrically and it is proportional to the enzyme activity. Fluorescence were measured at ex320 nm-em395 nm to minimise fluorescence interference from 3,6,7-trimethyllumazine at ex330 nm-em470 nm. Assays were performed on a 96-well clear microplate included in the kit with a final reaction volume of 100 µL. Before adding the substrate, MMP-9 enzymes were incubated with testing samples and inhibitor control for 60 min at 37° C. The fluorescent substrate was added into each well prior to the assay to initiate the reaction. The assay was allowed to run for 20 min and the temperature in the reaction chamber was set to 37° C.
Testing samples were prepared comprising 3,6,7-trimethyllumazine prepared as outlined above.
A positive control was included with only MMP-9 and the fluorescent substrate, used as a reference to calculate the percentage inhibition. A broad spectrum MMP inhibitor NNGH was included as the negative control. […]

[2] = tested on: inactive MMP-9 (pro-MMP-9); test: Gelatin gel zymography, inactive (pro-)MMP-9 band; type: biochemical; conditions: inactive MMP-9 band; supplemented developing buffer
Protocol: (§1) Novex™ 10% Zymogram Plus (Gelatin) Protein Gels (15 wells) were purchased from Thermo Fisher Scientific Inc. (Auckland, New Zealand). All chemicals required for the zymogram analysis were also purchased from Thermo Fisher, these include Novex™ Sharp Pre-stained Protein Standard, Novex Tris-Glycine SDS sample buffer, Novex Tris-Glycine SDS running buffer, Novex Zymogram renaturing buffer and Novex Zymogram developing buffer. […] Gelatin gel zymography was performed as an independent technique to confirm the inhibition of MMP-9 from 3,6,7-trimethyllumazine. This technique uses a non-reducing SDS-PAGE (sodium dodecyl sulfate polyacrylamide gel electrophoresis) gel embedded with gelatin. Proteins are migrated and separated during electrophoresis. The SDS is removed after electrophoresis and the gel is then incubated with essential cofactors required for enzymatic activity. The embedded gelatin can be digested by MMP-9, resulting in clear bands on a dark blue background after staining with Coomassie blue dyes. The gelatinase activity is represented by band densitometry, which can be assessed with image analysis software. […]
(§2) After incubation, the gelatin gel was rinsed with water for three times (5 min each) under gentle agitation. […] MMP-9 activities were analysed using densitometry on ImageJ Version 1.52a.

[3] = tested on: MMP-9 secretion in differentiated THP-1 cells; test: LPS induced MMP-9 secretion in differentiated THP-1 cells (ELISA); type: cell-based, human; conditions: LPS 1 μg/mL; for reduction of MMP-9 secretion: 24 hours
Protocol: THP-1 cells (ATCC, ATCTIB202) were grown in RPMI-1640 (Gibco, 11875093)+0.05 mM 2-mercaptoethanol+10% fetal calf serum (FCS)+1% pen-strep. For experiments, the cells were cultured in RPMI-1640 medium with 10% fetal bovine serum (FBS) only.
THP-1 monocyte cells were seeded at a density of 2.5×10^5 cells/ml in 96-well plates and differentiated into macrophages using 10 ng/ml of phorbol 12-myristate 13-acetate (PMA) (Bergin et al) (Sigma, P1585-1MG, Lot #SLBX889, 100% purity) for 72 hours. PMA media was then removed from the differentiated THP-1 cells, the cells were then washed once in RPMI-1640 media and then left to rest for ˜5 hours.
The differentiated THP-1 cells were stimulated with LPS from E. coli […] (Sigma, L6529; Lot#037K4068). LPS tested at a concentration of 1 μg/ml (Kong et al). The cells were incubated with LPS alone or in combination with 3,6,7-trimethyllumazine (received from University of Auckland and diluted in RPMI-1640 at a stock concentration of 1 mg/ml, stock was stored in fridge for 2 days before use) at a concentration range between 2.5-40 μg/ml. 6 μM Azithromycin (Sigma, Cat #75199-25MG, Lot#069M4826V) was used as a positive control (Vandooren et al). The cells were then incubated with the different treatments for 24 hours (Kong et al). After 24 hours, the cell culture media was collected and measured for MMP-9 concentration using MMP-9 ELISA (R&D systems, RDSDY91105 lot #P239459 and DY008 Lot #P239900). The cells were then incubated with WST-1 for cell viability.
This human MMP-9 assay measures the 92 kDa Pro-MMP-9 and the 82 kDa active MMP-9. […] This assay also recognizes human MMP-9 when complexed to Lipocalin-2/NGAL, isolated from human source material.
In order to better capture the variability, each treatment was done at least in triplicate in each plate (2 plates). Media from the triplicate wells were pooled and analysed in duplicates for the MMP-9 ELISA. A student's test was performed in excel between media with LPS and the different treatments.

recombinant MMP-9 enzyme [4] = target: T1, recombinant MMP-9 enzyme; test: MMP-9 inhibitor screening assay (colorimetric); type: biochemical; conditions: read-out: percentage inhibition of MMP-9
Description: The MMP-9 inhibitor screening assay (colorimetric) kits were purchased from Abcam (Melbourne, Australia). The kit contains the recombinant MMP-9 enzyme, MMP inhibitor NNGH, MMP chromogenic substrate, the colorimetric assay buffer and 96-well clear microplate.
The colorimetric kit uses a thiopeptide as a chromogenic substrate (Ac-PLG- [2-mercapto-4-methyl-pentanoyl]-LG-[…]), which can be hydrolysed by MMPs to produce a sulfhydryl group. This intermediate product further reacts with DTNB [5,5′-dithiobis(2-nitrobenzoic acid), Ellman's reagent] to form 2-nitro-5-thiobenzoic acid, which can be detected by absorbance at 412 nm. The change in absorbance was measured using the SpectraMax iD3 multi-mode microplate reader (Molecular Devices, San Jose, USA). The assays are performed on a convenient 96-wells microplate with a final reaction volume of 100 μL. Prior to the assay, all testing samples and inhibitor controls were incubated with MMP-9 for 60 min at 37° C. […] The absorbance was measured at 1 min intervals during the first 20 min, then 10 min intervals till the end of assay.
Recombinant MMP-9 and the chromogenic substrate were used as the positive control to represent 100% enzyme activity. […] A range of 3,6,7-trimethyllumazine concentrations were diluted with the colorimetric assay buffer to measure the absorbance of the reaction product.

active MMP-9 = test: Gelatin gel zymography, active MMP-9 band; type: biochemical; conditions: active MMP-9 band (~37 kDa); supplemented developing buffer
Protocol: as §1, §2

[5] = Simulated gastrointestinal digestion (SGF then SIF), 3,6,7-trimethyllumazine retention by HPLC; type: in vitro ADME; conditions: from four Manuka honey samples; 2 h gastric plus 4 h intestinal digestion
Protocol: The simulated gastrointestinal digestion was carried out using a static model. The simulated gastric fluid (SGF) and the simulated intestinal fluid (SIF) were prepared in accordance with a global consensus protocol (Minekus et al 2014). The SGF has a pH 3 to mimic the fed-state of the stomach. When mixed with Manuka honey (or a honey solution), the final mixture contains 2000 U/mL of pepsin. The SIF has pH 7 to mimic the fed-state of the small intestine, containing 2 mg/mL of pancreatin (8 x USP, or based on a protease activity of 200 U/mL) and 20 mM of porcine bile extract before use.
In the simulated gastric digestion, 2 g of Manuka honey was incubated in 2 mL of SGF at 37° C. under 95 rpm shaking for a period of 2 h (triplicates). At selected time points (0, 30, 60 and 120 min), a predetermined volume (0.1 mL) of the mixture was withdrawn for 3,6,7-trimethyllumazine analysis. […]
The gastric and intestinal digesta for 3,6,7-trimethyllumazine analysis was treated to remove insoluble fractions (e.g. pancreatin) before HPLC analysis. […] The amount of 3,6,7-trimethyllumazine at different time points was analysed using a reverse-phase HPLC system, which has been previously used to analyse 3,6,7-trimethyllumazine and leptosperin as reported in the literature (Bin Lin et al 2017). […] The signal of 3,6,7-trimethyllumazine was detected at 320 nm.

[6] = tested on: differentiated THP-1 cells; test: Cell viability (WST-1); type: cell-based; conditions: 40 μg/mL
Protocol: To measure cytotoxicity of 3,6,7-trimethyllumazine at different doses, 2-(4-lodophenyl)-3-(4-nitrophenyl)-5-(2,4-disulfophenyl)-2H-tetrazolium, monosodium salt (WST-1) (Roche, 11644807001, Lot #45255800) was used. WST-1 is a cell proliferation reagent for measurement of cellular proliferation, viability, and cytotoxicity using a colorimetric assay (Gosert (2011); Peskin (2000)).
After incubation, a portion of the culture media was taken and stored for MMP-9 secretion testing using ELISA. The remaining media in the plates was then removed and 100 μl of WST-1 in RPMI-1640 media (1:10 dilution) was added to each cell well and incubated at 37° C. for a further 4 hours. The plates were then read using a plate reader at wavelength of 450 nm. Cytotoxicity was calculated as follows: • [WST-1 score for each sample/WST-1 score for the control]×100 • A WST-1 score below 80% will be considered cytotoxic.

T1 sequence (P14780 94-707): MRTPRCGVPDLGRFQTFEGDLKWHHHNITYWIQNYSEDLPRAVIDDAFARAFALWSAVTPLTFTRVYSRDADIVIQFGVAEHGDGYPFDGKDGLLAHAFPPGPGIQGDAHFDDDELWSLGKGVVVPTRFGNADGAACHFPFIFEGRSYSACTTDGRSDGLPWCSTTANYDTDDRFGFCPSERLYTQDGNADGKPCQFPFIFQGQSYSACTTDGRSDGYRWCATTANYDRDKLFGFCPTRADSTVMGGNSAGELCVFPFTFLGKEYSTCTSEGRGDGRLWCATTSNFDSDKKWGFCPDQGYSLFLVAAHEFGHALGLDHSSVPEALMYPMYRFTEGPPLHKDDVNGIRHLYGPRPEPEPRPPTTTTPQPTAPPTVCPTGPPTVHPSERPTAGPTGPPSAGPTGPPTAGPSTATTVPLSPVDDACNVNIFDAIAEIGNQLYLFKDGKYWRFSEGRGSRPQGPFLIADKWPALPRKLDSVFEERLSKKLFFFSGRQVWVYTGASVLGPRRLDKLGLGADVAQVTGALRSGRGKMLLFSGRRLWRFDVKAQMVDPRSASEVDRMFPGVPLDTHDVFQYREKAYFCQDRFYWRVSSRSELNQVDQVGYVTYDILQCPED

COc1ccc(S(=O)(=O)N(CC(=O)NO)CC(C)C)cc1 [NNGH, N-isobutyl-N-[4-methoxyphenylsulfonyl]glycyl hydroxamic acid, reference compound]
change in fluorescence intensity (MMP-9 activity) (recombinant MMP-9 enzyme [1]; NNGH inhibitor control): almost no change in fluorescence

Cc1nc2[nH]c(=O)n(C)c(=O)c2nc1C [3,6,7-trimethyllumazine]
percentage inhibition of gelatinase activity (densitometry) [2]: 17%
reduction of MMP-9 secretion ([3]; 30 μg/mL): 23%
reduction of MMP-9 secretion ([3]; 40 μg/mL): 38%
inhibition at 40 µg/mL (recombinant MMP-9 enzyme [4]; 40 μg/ml): 10%
inhibition at 80 µg/mL (recombinant MMP-9 enzyme [4]; 80 μg/ml): 10%
percentage inhibition of gelatinase activity (densitometry) (active MMP-9): 31%
initial 3,6,7-trimethyllumazine amount recovered in the digesta [5]: ~100%
inhibition at 2.5 µg/mL (recombinant MMP-9 enzyme [1]; 2.5 μg/ml, not significant (p>0.05), read-out: percentage inhibition of MMP-9 activity): 12%
IC50 (recombinant MMP-9 enzyme [1]; fluorometric, second-order polynomial fit of % inhibition vs concentration): 55.8 µM
WST-1 score (cell viability; below 80% considered cytotoxic) [6]: 79.8%

CC[C@H]1OC(=O)[C@H](C)[C@@H](O[C@H]2C[C@@](C)(OC)[C@@H](O)[C@H](C)O2)[C@H](C)[C@@H](O[C@@H]2O[C@H](C)C[C@H](N(C)C)[C@H]2O)[C@](C)(O)C[C@@H](C)CN(C)[C@H](C)[C@@H](O)[C@]1(C)O [Azithromycin, reference compound]
effect on MMP-9 secretion ([3]; 6 μM positive control, absolute values, P=0.00): inhibits mmp-9 secretion
